Measurements: patent US11136324B2, “Substituted imidazoles as apoptosis signal regulating kinase 1 inhibitors” (Jiangsu Hansoh Pharmaceutical Group Co., Ltd., priority 2017, dated 2021)

Columns and labels:
ASK1 kinase = ASK1 kinase (Homo sapiens (Human), UniProt Q99683); assay: ASK1 enzymatic test (TR-FRET); assay type: biochemical; settings: ASK1 kinase activity
Experimental: In this test, the fluorescence-resonance energy transfer (TR-FRET) method was used to determine the inhibition effect of the test compounds on ASK1 kinase activity, and the half maximal inhibitory concentration IC50 of the compounds on ASK1 kinase activity was obtained.
1) 1˜5 μL of ASK1 enzyme solution was added to a 384-well plate, and the final concentration of the enzyme was 0.220 nM.
2) 1˜5 μL of gradient-diluted compound solution was added.
3) 1˜5 μL of a substrate mixture containing substrate polypeptides (final concentration: 100˜5000 nM) and ATP (final concentration: 100˜1000 uM) were added.
4) The mixture was incubated at room temperature for 0.5 to 5 hours.
5) 10 μL of EDTA and test solution containing labeled antibody were added, and the plate was incubated at room temperature for 2 to 24 hours.
6) The fluorescence signal value of each well was determined by a microplate reader at about 615 nm and 665 nm.
7) The inhibition rate was calculated by the fluorescence signal value.
8) The IC50 of the compound was obtained by curve fitting according to the inhibition rate at different concentrations.

[1] = test system: non-alcoholic steatohepatitis mice induced by HFD (high fat diet)+CCl4; assay: Effect on serum ALT and AST levels of non-alcoholic steatohepatitis mice induced by HFD+CCl4; assay type: in vivo, C57BL/6 mice; design: concentration or dose not given beside the values; settings: oral once a day for 28 days, versus solvent control group
From the text: 3. The effect of the compounds of the present invention on the ALT and AST levels of non-alcoholic steatohepatitis mice induced by HFD (high fat diet)+CCl4
The object of this test example is to determine whether the compounds of the present invention can down-regulate the ALT and AST levels in the serum of non-alcoholic steatohepatitis mice or not.
C57BL/6 mice were adaptively fed in a SPF (specific pathogen free) barrier for 3 to 7 days, and then fed with HFD feed with a feeding cycle of 8 weeks. At the fifth week of HFD feeding, the HFD-induced mice were randomly grouped according to body weight, and orally administrated with CCl4 twice a week for 4 weeks. At the day of modeling with CCl4, the test compounds were orally administrated once a day continuously for 28 days. The solvent control group was administrated with the corresponding solvent of the test compounds with an administration volume of 10 mL/kg. The mice were euthanized with CO2 48 hours after the last administration of CCl4, and the non-anticoagulated venous blood was collected from the heart. The whole blood was left to stand at room temperature for at least 30 minutes, and then centrifuged for 5 minutes at 4° C. at 5000 rpm to separate the serum. The serum was dispensed into two portions in 1.5 mL EP tubes, and stored at −80° C. for later use.
The ALT and AST levels in mice serum were determined using the alanine aminotransfease (ALT/GPT) kit and aspartate aminotransferase (AST/GOT) kit. The ALT (or AST) test substrate solution was preheated in a 37° C. incubator; 20 μL of substrate solution were pipetted into a 96-well plate, and 5 μL of serum were pipetted into the 96-well plate as test well. After mixing well, the plate was sealed using a sealing film, and placed into the 37° C. incubator to incubate for 30 min. The ALT (or AST) standard curve was formulated, and 25 μL of which were pipetted into the 96-well plate; 20 μL of […] were pipetted into the 96-well plate as control well; 20 μL of 2,4-dinitrophenylhydrazine solution were added to each well. After mixing well, the plate was sealed using a sealing film, and placed into the 37° C. incubator to incubate for 20 min. 200 μL of 0.4 M NaOH solution were added to each well. The plate was placed on a shaker to shake for 15 min, and then measured on the BioTek Synergy H1 instrument using OD detection program at a wavelength of 510 nm. The absolute OD value was calculated from the OD value of each well. Absolute OD value=OD value of measured well−OD value of control well. The absolute OD value was taken into the standard curve to obtain the ALT (or AST) content of the sample. Samples that exceed the standard curve range should be re-tested after diluting the serum to an appropriate concentration. Data processing: (% ALT reduction rate)=(solvent control group−test compound)/solvent control group×100%; (% AST reduction rate)=(solvent control group−test compound)/solvent control group×100%.

[2] = Pharmacokinetic (PK) assay in mice; assay type: in vivo; settings: Balb/c male mice, single intragastric administration, 5 mg/kg, plasma; for AUC(0-t) / AUC(0-inf) / half-life / MRT / Cmax: mouse, po; for AUC(0-t): read-out: Area under curve AUC0-t; for AUC(0-inf): read-out: Area under curve AUC0-∞; for half-life: read-out: Half-life t1/2 (converted); for MRT: read-out: Mean residence time MRT; for Cmax: read-out: Plasma concentration Cmax
Experimental: 2. Pharmacokinetic (PK) Assay in Mice
The pharmacokinetic test of the preferred examples of the present invention in mice was carried out in Balb/c male mice (Shanghai Jiesijie Laboratory Animal Co., LTD).
Administration mode: single intragastric administration.
Administration dosage: 5 mg/10 ml/kg.
Formulation: 0.5% CMC-Na, ultrasonic dissolution.
Sampling points: 0.5, 1, 2, 4, 6, 8 and 24 hours after administration.
1) 0.1 mL of blood was taken from the orbit, placed in a K2EDTA tube, and centrifuged for 5˜20 min at room temperature at 1000˜3000×g to separate the plasma, which was then stored at −80° C.
2) 160 μL of acetonitrile was added to 40 μL of plasma sample for precipitation, and then the mixture was centrifuged for 5˜20 minutes at 500˜2000×g.
3) 100 μL, of processed supernatant was taken and analyzed by LC/MS/MS assay to determine the concentration of the test compound.
LC-MS/MS Assay: • Liquid chromatography condition: Shimadzu LC-20AD pump • Mass spectrometry condition: AB Sciex API 4000 mass spectrometer • Chromatographic column: phenomenex Gemiu 5 μm C18 50×4.6 mm • Mobile phase: solution A was 0.1% aqueous formic acid solution, and solution B was acetonitrile • Flow rate: 0.8 mL/min • Elution time: 0-3.5 minutes gradient elution
The main parameters were calculated using WinNonlin 6.1.

Sequence of ASK1 kinase (Q99683 whole entry): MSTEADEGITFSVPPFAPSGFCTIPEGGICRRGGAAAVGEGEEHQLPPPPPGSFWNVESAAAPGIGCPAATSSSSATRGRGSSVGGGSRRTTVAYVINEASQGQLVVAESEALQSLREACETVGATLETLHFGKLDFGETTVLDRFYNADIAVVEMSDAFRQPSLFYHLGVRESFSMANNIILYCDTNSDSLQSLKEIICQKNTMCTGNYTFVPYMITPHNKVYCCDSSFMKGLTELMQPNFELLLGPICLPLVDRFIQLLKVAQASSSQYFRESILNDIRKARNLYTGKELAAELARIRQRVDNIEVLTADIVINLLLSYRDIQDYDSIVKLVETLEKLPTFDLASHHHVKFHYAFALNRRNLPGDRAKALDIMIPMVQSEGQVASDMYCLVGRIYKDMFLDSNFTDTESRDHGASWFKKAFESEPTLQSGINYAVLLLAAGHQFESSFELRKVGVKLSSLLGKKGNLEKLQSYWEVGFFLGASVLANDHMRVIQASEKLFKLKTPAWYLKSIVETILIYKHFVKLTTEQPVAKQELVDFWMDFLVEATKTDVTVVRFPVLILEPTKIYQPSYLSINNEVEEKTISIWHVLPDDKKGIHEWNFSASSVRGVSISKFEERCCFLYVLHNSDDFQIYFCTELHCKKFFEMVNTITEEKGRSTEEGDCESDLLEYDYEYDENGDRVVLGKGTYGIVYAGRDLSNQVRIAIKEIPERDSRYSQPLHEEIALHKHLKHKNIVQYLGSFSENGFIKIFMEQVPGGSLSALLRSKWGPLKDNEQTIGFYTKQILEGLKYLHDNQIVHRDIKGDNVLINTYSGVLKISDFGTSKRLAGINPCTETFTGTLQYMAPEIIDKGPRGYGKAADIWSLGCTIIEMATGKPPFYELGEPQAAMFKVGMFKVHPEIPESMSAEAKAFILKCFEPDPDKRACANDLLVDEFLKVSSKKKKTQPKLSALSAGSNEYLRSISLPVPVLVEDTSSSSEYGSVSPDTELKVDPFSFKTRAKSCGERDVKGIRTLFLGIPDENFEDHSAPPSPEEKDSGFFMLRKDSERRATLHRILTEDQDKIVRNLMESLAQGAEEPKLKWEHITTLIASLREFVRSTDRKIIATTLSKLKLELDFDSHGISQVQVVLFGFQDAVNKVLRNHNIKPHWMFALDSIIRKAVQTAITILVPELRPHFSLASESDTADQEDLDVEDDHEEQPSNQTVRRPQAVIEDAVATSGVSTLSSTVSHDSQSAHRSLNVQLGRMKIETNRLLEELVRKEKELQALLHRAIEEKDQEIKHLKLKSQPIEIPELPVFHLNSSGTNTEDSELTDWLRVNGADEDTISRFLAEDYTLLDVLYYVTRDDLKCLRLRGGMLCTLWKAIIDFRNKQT

IC50 (ASK1 kinase) | Peak time tmax [2] | AUC(0-t) [2] | AUC(0-inf) [2] | half-life [2] | MRT [2] | Cmax [2] | Structure (SMILES) | ALT(U/L) reduction rate (%) [1] | AST(U/L) reduction rate (%) [1]
1.4 nM |  |  |  |  |  |  | Cc1cc(F)c(C(=O)Nc2cccc(-c3nnc4n3[C@H](C)CC4)n2)cc1-n1cnc(C(C)(C)C)c1 [Example 15, (R)-5-(4-(tert-Butyl)-1H-imidazol-1-yl)-2-fluoro-4-methyl-N-(6-(5-methyl-6,7-dihydro-5H-pyrrolo[2,1-c][1,2,4]triazol-3-yl)pyridin-2-yl)benzamide] | 54% | 58%
1.9 nM | 1 h | 68.6 µg·h/mL | 68.8 µg·h/mL | 2.7 h | 4.5 h | 11.4 µg/mL | Cc1cc(F)c(C(=O)Nc2cccc(-c3nnc4n3C3(CC4)CC3)n2)cc1-n1cnc(C2CC2)c1 [Example 61, 5-(4-Cyclopropyl-1H-imidazol-1-yl)-N-(6-(6′,7′-dihydrospiro[cyclopropane-1,5′-pyrrolo[2,1-c][1,2,4]triazol]-3′-yl)pyridin-2-yl)-2-fluoro-4-methylbenzamide] | 50% | 54%
1.9 nM | 0.5 h | 31.5 µg·h/mL | 31.5 µg·h/mL | 1.4 h | 2.9 h | 9.33 µg/mL | CC[C@@H]1CCc2nnc(-c3cccc(NC(=O)c4cc(-n5cnc(C6CC6)c5)c(C)cc4F)n3)n21 [Example 55, (R)-5-(4-Cyclopropyl-1H-imidazol-1-yl)-N-(6-(5-ethyl-6,7-dihydro-5H-pyrrolo[2,1-c][1,2,4]triazol-3-yl)pyridin-2-yl)-2-fluoro-4-methylbenzamide] | 56% | 55%
1 nM | 0.5 h | 32.4 µg·h/mL | 32.4 µg·h/mL | 1.6 h | 3 h | 8.99 µg/mL | Cc1cc(F)c(C(=O)Nc2cccc(-c3nnc4n3C(C)(C)CC4)n2)cc1-n1cnc(C2CC2)c1 [Example 10, 5-(4-Cyclopropyl-1H-imidazol-1-yl)-N-(6-(5,5-dimethyl-6,7-dihydro-5H-pyrrolo[2,1-c][1,2,4]triazol-3-yl)pyridin-2-yl)-2-fluoro-4-methylbenzamide] | 50% | 46%
1.9 nM | 0.5 h | 26.8 µg·h/mL | 28.3 µg·h/mL | 1.7 h | 2.7 h | 10.7 µg/mL | Cc1cc(F)c(C(=O)Nc2cccc(-c3nnc4n3[C@H](C(F)(F)F)CC4)n2)cc1-n1cnc(C2CC2)c1 [Example 40, (S)-5-(4-Cyclopropyl-1H-imidazol-1-yl)-2-fluoro-4-methyl-N-(6-(5-(trifluoromethyl)-6,7-dihydro-5H-pyrrolo[2,1-c][1,2,4]triazol-3-yl)pyridin-2-yl)benzamide] | 50% | 65%
3.5 nM | 0.5 h | 43.9 µg·h/mL | 48 µg·h/mL | 2.1 h | 3.4 h | 11.7 µg/mL | C=C[C@@H]1CCc2nnc(-c3cccc(NC(=O)c4cc(-n5cnc(C6CC6)c5)c(C)cc4F)n3)n21 [Example 37, (S)-5-(4-Cyclopropyl-1H-imidazol-1-yl)-2-fluoro-4-methyl-N-(6-(5-vinyl-6,7-dihydro-5H-pyrrolo[2,1-c][1,2,4]triazol-3-yl)pyridin-2-yl)benzamide] | 57% | 62%
5.5 nM |  |  |  |  |  |  | Cc1cc2c(cc1-n1cnc(C3CC3)c1)C(=O)N(c1cccc(-c3nnc4n3C3(CC4)CC3)n1)C2 [Example 64, 6-(4-Cyclopropyl-1H-imidazol-1-yl)-2-(6-(6′,7′-dihydrospiro[cyclopropane-1,5′-pyrrolo[2,1-c][1,2,4]triazol]-3′-yl)pyridin-2-yl)-5-methylisoindolin-1-one] | 51% | 47%
9.4 nM |  |  |  |  |  |  | Cc1cc2c(cc1-n1cnc(C3CC3)c1)C(=O)N(c1cccc(-c3nnc4n3[C@H](C(F)(F)F)CC4)n1)C2 [Example 65, (S)-6-(4-Cyclopropyl-1H-imidazol-1-yl)-5-methyl-2-(6-(5-(trifluoromethyl)-6,7-dihydro-5H-pyrrolo[2,1-c][1,2,4]triazol-3-yl)pyridin-2-yl)isoindolin-1-one] | 46% | 52%
1.9 nM | 0.5 h | 80.9 µg·h/mL | 81.9 µg·h/mL | 3.9 h | 5.3 h | 12.2 µg/mL | C#C[C@@H]1CCc2nnc(-c3cccc(NC(=O)c4cc(-n5cnc(C6CC6)c5)c(C)cc4F)n3)n21 [Example 43, (S)-5-(4-Cyclopropyl-1H-imidazol-1-yl)-N-(6-(5-ethynyl-6,7-dihydro-5H-pyrrolo[2,1-c][1,2,4]triazol-3-yl)pyridin-2-yl)-2-fluoro-4-methylbenzamide] | 65% | 58%
